According to ChEMBL document CHEMBL1146684, “An electrochemical device for the assay of the interaction between a dioxin receptor and its various ligands” (Bioorg Med Chem Lett, 2004):

Target: T1, Aryl hydrocarbon receptor (Homo sapiens, UniProt P35869)
T1 sequence (P35869 whole entry): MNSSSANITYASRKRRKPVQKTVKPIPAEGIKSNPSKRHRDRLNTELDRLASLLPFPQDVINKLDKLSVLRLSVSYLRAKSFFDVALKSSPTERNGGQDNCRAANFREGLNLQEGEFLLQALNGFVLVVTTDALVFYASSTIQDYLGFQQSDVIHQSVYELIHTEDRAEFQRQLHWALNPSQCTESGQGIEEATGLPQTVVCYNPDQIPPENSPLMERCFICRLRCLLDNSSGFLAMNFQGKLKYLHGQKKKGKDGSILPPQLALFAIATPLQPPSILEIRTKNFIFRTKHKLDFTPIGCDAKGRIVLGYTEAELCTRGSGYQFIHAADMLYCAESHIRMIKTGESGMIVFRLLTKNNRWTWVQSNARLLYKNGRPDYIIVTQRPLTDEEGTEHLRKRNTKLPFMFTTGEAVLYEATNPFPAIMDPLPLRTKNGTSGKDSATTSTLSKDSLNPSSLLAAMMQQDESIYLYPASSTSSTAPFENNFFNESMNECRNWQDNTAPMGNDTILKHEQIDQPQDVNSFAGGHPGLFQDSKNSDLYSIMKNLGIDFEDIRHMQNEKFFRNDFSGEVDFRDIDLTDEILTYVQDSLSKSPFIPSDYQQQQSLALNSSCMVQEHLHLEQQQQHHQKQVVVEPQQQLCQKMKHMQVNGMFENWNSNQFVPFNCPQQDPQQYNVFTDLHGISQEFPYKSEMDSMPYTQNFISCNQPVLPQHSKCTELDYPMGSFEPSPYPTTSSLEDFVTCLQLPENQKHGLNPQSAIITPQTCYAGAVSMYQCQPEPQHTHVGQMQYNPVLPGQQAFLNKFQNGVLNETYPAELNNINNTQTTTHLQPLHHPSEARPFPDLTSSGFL
Assay: Compound tested for its binding to human Orphan receptor (AhR); Active; call rule not given here

SMILES | Activity
Clc1cc2c(cc1Cl)Oc1cc(Cl)c(Cl)cc1O2 [2,3,7,8-TETRACHLORODIBENZO-P-DIOXIN] | Active
c1ccc2c(c1)cc1ccc3cccc4ccc2c1c34 [BENZO[DEF]CHRYSENE] | Active
O=c1cc(-c2ccccc2)oc2ccc3ccccc3c12 [BETA-NAPHTHOFLAVONE] | Active
